Publication PMC4780679 (Inorganic chemistry, 2015)

Target: HydG (So HydG, WT HydG) (Shewanella oneidensis, UniProt Q8EAH9)
Experiment: X-band CW EPR of the [4Fe-4S]RS cluster
Type: binding
Settings: pH 7.5, 10 K; [4Fe-4S]RS cluster site

C[S+](CC[C@H](N)C(=O)O)C[C@H]1O[C@@H](n2cnc3c(N)ncnc32)[C@H](O)[C@@H]1O (stereo partly drawn) [SAM, S-adenosyl-L-methionine]
X-band CW EPR of the [4Fe-4S]RS cluster: interaction between the HydG [4Fe–4S]RS cluster and the substrates, Tyr or SAM
